Entries after “also recorded” stand apart in the source; their conditions may differ. Read-outs that look alike come from different tables or passages of the source.
Legend:
[1] = tested on: nicotinic receptor; test: Resting cortical cerebral blood flow (CBF) in rats, iv administration; type: in vivo, rat; details: for Resting Cortical CBF, % of Resting CONTROL: mean (SEM), (+) N = 5 rats, (-) N = 3 rats; for effect on resting CBF: 0.1-3.0 mg/kg, result in words
Experimental: (§1) Methods for surgical preparations of rats for electrical stimulation of brain and measurement of cortical CBF are detailed by Linville and Arneric (1991).
(§2) Intravenous (iv) administration of (+) 2-methylpiperidine ((+)2-MP) and (-)2-MP (0.1-3.0 mg/kg) were examined for their effect on mean arterial pressure (MAP), resting CBF and increases in cortical CBF elicited by electrically stimulating the BF (.perspectiveto.25 Hz; 100 uA; 10 sec. train).

[2] = tested on: nicotinic receptor; test: Cortical CBF response elicited by electrical stimulation of the basal forebrain (BF) in rats; type: in vivo, rat; details: iv; for BF-Elicited CBF Response, % of Resting Cortical CBF: mean (SEM), (+) N = 5 rats, (-) N = 3 rats; for effect on BF-elicited CBF response: 0.1-3.0 mg/kg, result in words
Experimental: as §1, §2

[3] = Mean arterial pressure (MAP) in rats, iv administration; type: in vivo, rat; details: for Mean Arterial Pressure (MAP): mean (SEM), (+) N = 5 rats, (-) N = 3 rats; for effect on mean arterial pressure / blood pressure: 0.1-3.0 mg/kg, result in words
Experimental: as §1, §2

[4] = tested on: CD1 mice; test: Mouse elevated-plus maze (conflict test, anxiolytic activity); type: in vivo
Experimental: FIG. 1A is a graph of time mice spend in the open arms of the elevated-plusmaze (a conflict test that probes anxiolytic activity) as a function of the dose of (-)nicotine administered to the mice.
FIG. 1B is a graph of time mice spend in the open arms of the elevated-plusmaze as a function of the administration of (+)2-methylpiperidine (0.1 mg/kg) or (-)nicotine administered separately or in combination.
The mouse elevated-plus maze is a conflict test that probes anxiolytic activity (Lister, Pyschopharmacology, 1987, 92:180). It is based on the fact that exposure of mice to an elevated open arm leads to an avoidance response considerably stronger than that evoked by exposure to an enclosed arm.
The apparatus required to perform this test is made of plexiglass and consists of two open arms (17×8 cm) and two enclosed arms (17×8×15 cm) extending from a central platform (8×8 cm). It is mounted on an opaque plexiglass base rising 39 cm above the floor. Mice are released on one of the open arms and the time spent in the open and enclosed arms is recorded during a 5 min. test period.
CD1 mice (n=8 per group) received systemic (-)nicotine injections (0, 0.03, 0.1 or 0.3 mg/kg, IP) fifteen minutes before they were allowed to explore the plus-maze for a 5 minute test period.

[5] = tested on: Adult male CD1 mice; test: Habituation / locomotor activity in automated activity monitors; type: in vivo, mouse; details: for locomotor activity, first 10 min after introduction to the novel environment: Saline=3680±169
Experimental: Adult male CD1 mice (n=8/group) were injected with (+)2-methylpiperidine (0, 1.0, 3.0 or 10.0 mg/kg, i.p.) immediately prior or 60 min. prior to placement in automated activity monitors (Omnitech, Columbus, Ohio). These enclosures, measuring 40×40×42 cm, are equipped with a series of photocells and generate measurements of a variety of locomotor activities.

[6] = Hypothermia: rectal temperature of mice; type: in vivo, mouse; details: i.p.; for Rectal temperature 15 min. later: saline 38.3 ± 0.1, mean ± S.E.M.
Experimental: Adult male CD1 mice (n=5-7/group) were injected with (+)2-methylpiperidine (0, 10 or 100 mg/kg, i.p.) and rectal temperatures were assessed (YSI Model 43 TA) 15 min. later.

[7] = tested on: male CD1 mice; test: Acute lethality in mice within 24 hours; type: in vivo, mouse; details: for Deaths in 24 hours / tolerability: i.p.; for Deaths in 24 hours: mandelic acid salt, deaths/animals; for tolerability: 30 and 100 mg/kg
Text: Compounds were given as the respective mandelic acid salts.

[8] = tested on: mouse; test: (-)Nicotine induced mouse lethality after pretreatment; type: in vivo
[9] = Combined effects of (-)nicotine and (+)2-methylpiperidine on rectal temperatures of mice; type: in vivo, mouse; details: for Rectal temperature: mean ± S.E.M.
[10] = tested on: rat brain receptor sites; details: cited from earlier work
[11] = (-)Nicotine induced mouse lethality after pretreatment; type: in vivo; details: mouse, in vivo, ip; saline pretreatment; read-out: LD50 [95% C.I.] of (-)nicotine
[12] = tested on: CD1 mice; details: known anxiolytic drug, background of the test; cited from earlier work
[13] = 0.1 mg/kg, dose 0: (+) 100 (10), (-) 100 (13)
[14] = 0.1 mg/kg, dose 0: (+) 153 (11), (-) 130 (8)
[15] = 0.1 mg/kg, dose 0: (+) 76 (3), (-) 90 (6)
[16] = pretreatment 10.0 mg/kg, (-)nicotine 3 mg/kg
[17] = pretreatment 10.0 mg/kg, (-)nicotine 6 mg/kg
[18] = pretreatment 10.0 mg/kg, (-)nicotine 9 mg/kg

CC1CCCCN1 (racemic) [(+)2-methylpiperidine, (+)-2-methylpiperidine]
Resting Cortical CBF, % of Resting CONTROL [1, 13]: 126 (15) % | Resting Cortical CBF, % of Resting CONTROL ([1]; 0.3 mg/kg): 133 (22) % | Resting Cortical CBF, % of Resting CONTROL ([1]; 1.0 mg/kg): 146 (28) % | Resting Cortical CBF, % of Resting CONTROL ([1]; 3.0 mg/kg): 140 (27) % | effect on resting CBF ([1]; listed as (+)2-MP): effective in enhancing resting CBF | effect on resting CBF ([1]; listed as (+)-2MP): enhanced | BF-Elicited CBF Response, % of Resting Cortical CBF [2, 14]: 203 (21) % | BF-Elicited CBF Response, % of Resting Cortical CBF ([2]; 0.3 mg/kg): 222 (20) % | BF-Elicited CBF Response, % of Resting Cortical CBF ([2]; 1.0 mg/kg): 222 (23) % | BF-Elicited CBF Response, % of Resting Cortical CBF ([2]; 3.0 mg/kg): 220 (19) % | effect on BF-elicited CBF response ([2]; listed as (+)2-MP): effective in enhancing resting CBF and the BF-elicited CBF response | effect on BF-elicited CBF response ([2]; listed as (+)-2MP): enhanced | Mean Arterial Pressure (MAP) [3, 15]: 82 (6) mmHg | Mean Arterial Pressure (MAP) ([3]; 0.3 mg/kg): 87 (5) mmHg | Mean Arterial Pressure (MAP) ([3]; 1.0 mg/kg): 92 (7) mmHg | Mean Arterial Pressure (MAP) ([3]; 3.0 mg/kg): 87 (7) mmHg | effect on mean arterial pressure / blood pressure [3]: no overt on blood pressure | effect on mean arterial pressure / blood pressure ([3]; listed as (+)2-MP): No remarkable effects | anxiolytic activity in combination with a non-effective dose of (-)nicotine ([4]; (+)2-methylpiperidine 0.1 mg/kg, IP, 5 min prior to (-)nicotine (FIG. 1B), n=8): able to enhance the anxiolytic activity of a non-effective dose of (-)nicotine | locomotor activity, first 10 min after introduction to the novel environment ([5]; 3.0 mg/kg, i.p., 60 min prior): 3402±164 activity counts | locomotor activity, first 10 min after introduction to the novel environment ([5]; 10 mg/kg, i.p., 60 min prior): 3349±126 activity counts | effect on the habituation process ([5]; 1.0, 3.0 or 10.0 mg/kg, i.p., drug-by-time interaction p<0.02): dose-related enhancement of the habituation process | effect on locomotor activity (impairment or sedation) ([5]; 3.0 or 10.0 mg/kg, 60 min prior, first 10 min): did not significantly decrease the high level of locomotor activity | Rectal temperature 15 min. later ([6]; 10 mg/kg, baseline 38.2 ± 0.1): 38.2 ± 0.1 °C | Rectal temperature 15 min. later ([6]; 100 mg/kg, baseline 38.3 ± 0.1): 38.2 ± 0.2 °C | effect on rectal temperature ([6]; 10 or 100 mg/kg, 15 min, as well as 60 and 120 min later): without effect | Deaths in 24 hours ([7]; 30 mg/kg): 0/5 | Deaths in 24 hours ([7]; 100 mg/kg): 0/5 | tolerability [7]: well tolerated by male CD1 mice, and did not cause any deaths within 24 hours | effect on the lethality elicited by (-)nicotine ([8]; i.p. (-)nicotine, result in words): did not potentiate the lethality; also recorded: does not potentiate (-)nicotine induced acute lethality | DEATHS/24 hours ([8]; pretreatment 0.1 mg/kg, (-)nicotine 3 mg/kg): 0/6 | DEATHS/24 hours ([8]; pretreatment 0.1 mg/kg, (-)nicotine 6 mg/kg): 1/6 | DEATHS/24 hours ([8]; pretreatment 0.1 mg/kg, (-)nicotine 9 mg/kg): 2/6 | DEATHS/24 hours [8, 16]: 0/6 | DEATHS/24 hours [8, 17]: 1/8 | DEATHS/24 hours [8, 18]: 3/6 | Rectal temperature ([9]; (+)2-MP 0.1 mg/kg (so in the source) pretreatment, then (-)nicotine 1.0 mg/kg, * p<0.05): 36.0 ± 0.7 °C | Rectal temperature ([9]; (+)2-MP 1.0 mg/kg pretreatment, then (-)nicotine 0.3 mg/kg): 37.8 ± 0.2 °C | Rectal temperature ([9]; (+)2-MP 10.0 mg/kg pretreatment, then (-)nicotine 0.3 mg/kg): 37.5 ± 0.3 °C | Rectal temperature ([9]; (+)2-MP 10.0 mg/kg pretreatment, then (-)nicotine 1.0 mg/kg, * p<0.05): 36.5 ± 0.5 °C | effect on the hypothermic response to (-)nicotine ([9]; (+)2-methylpiperidine 1 and 10 mg/kg, i.p., 3 min. prior to (-)nicotine): did not potentiate the hypothermic response to (-)nicotine; also recorded: the hypothermic response of the low dose of (-)nicotine (0.3 mg/kg) was actually attenuated; also recorded: the higher dose of (-)nicotine was unaffected | enhancement of the binding of nicotine / nicotinic ligands ([10]; Sloan et al. 1985, listed as (+)isomer of (±)2-methylpiperidine): enhances the binding of nicotinic ligands to rat brain receptor sites

CC1CCCCN1 (racemic) [(±)-2-methylpiperidine, reference compound]
enhancement of the binding of nicotine / nicotinic ligands ([10]; Sloan et al. 1985): high degree of specificity in enhancing the binding of nicotine in the rat brain

CC1CCCCN1 (single isomer, unassigned; (-)) [(-)2-methylpiperidine, reference compound]
Resting Cortical CBF, % of Resting CONTROL [1, 13]: 99 (32) % | Resting Cortical CBF, % of Resting CONTROL ([1]; 0.3 mg/kg): 86 (29) % | Resting Cortical CBF, % of Resting CONTROL ([1]; 1.0 mg/kg): 74 (27) % | Resting Cortical CBF, % of Resting CONTROL ([1]; 3.0 mg/kg): 70 (30) % | effect on resting CBF [1]: no ability to enhance | BF-Elicited CBF Response, % of Resting Cortical CBF [2, 14]: 113 (30) % | BF-Elicited CBF Response, % of Resting Cortical CBF ([2]; 0.3 mg/kg): 101 (28) % | BF-Elicited CBF Response, % of Resting Cortical CBF ([2]; 1.0 mg/kg): 88 (26) % | BF-Elicited CBF Response, % of Resting Cortical CBF ([2]; 3.0 mg/kg): 81 (30) % | effect on BF-elicited CBF response [2]: no ability to enhance | Mean Arterial Pressure (MAP) [3, 15]: 78 (4) mmHg | Mean Arterial Pressure (MAP) ([3]; 0.3 mg/kg): 83 (4) mmHg | Mean Arterial Pressure (MAP) ([3]; 1.0 mg/kg): 80 (8) mmHg | Mean Arterial Pressure (MAP) ([3]; 3.0 mg/kg): 73 (4) mmHg | Deaths in 24 hours ([7]; 30 mg/kg): 0/5 | Deaths in 24 hours ([7]; 100 mg/kg): 0/5 | tolerability [7]: well tolerated by male CD1 mice, and did not cause any deaths within 24 hours | DEATHS/24 hours [8, 16]: 0/6 | DEATHS/24 hours [8, 17]: 0/6 | DEATHS/24 hours [8, 18]: 4/6

CN1CCCC1c1cccnc1 (single isomer, unassigned; (-)) [(-)nicotine, reference compound]
time spent in the open arms (anxiolytic effect) ([4]; (-)nicotine 0.1 and 0.3 mg/kg, IP, 15 min before test, p<0.05 vs saline, n=8): significant increase in the time spent by the mice in the open arms | anxiolytic activity of the low (-)nicotine dose given alone ([4]; (-)nicotine dose used in the combination of FIG. 1B): non-effective | death of animals ([7]; (-)nicotine 9.0 mg/kg): 4 out of 6 | signs of cholinostimulation ([7]; (-)nicotine 9.0 mg/kg): dyspnea and decreased activity | LD50 [11]: 7.7 mg/kg | DEATHS/24 hours ([8]; (-)nicotine 3 mg/kg, saline pretreatment): 0/6 | DEATHS/24 hours ([8]; (-)nicotine 6 mg/kg, saline pretreatment): 2/8 | DEATHS/24 hours ([8]; (-)nicotine 9 mg/kg, saline pretreatment): 4/6 | effect on temperature ([9]; (-)nicotine 0.3 and 1.0 mg/kg, i.p.): significantly lowered temperature | Rectal temperature ([9]; saline pretreatment, (-)nicotine 0.3 mg/kg, * p<0.05 vs saline (38.3 ± 0.1)): 36.9 ± 0.2 °C | Rectal temperature ([9]; saline pretreatment, (-)nicotine 1.0 mg/kg, * p<0.05 vs saline (38.3 ± 0.1)): 36.5 ± 0.6 °C

CN1C(=O)CN=C(c2ccccc2)c2cc(Cl)ccc21 [diazepam]
time spent in open arms, known anxiolytic drugs [12]: increased in a dose-related way

Reference: patent US5272155A, “(+)-2-methylpiperidine as modulator of cholinergic systems” (Abbott Laboratories, priority 1991, dated 1993)
